Source: PMC10493609 (Frontiers in Immunology, 2023)

Target: T1, Galectin-3 (Gal-3) (Homo sapiens, UniProt P17931)
T1 construct: gene LGALS3; Human recombinant Gal-3
Experiment: SPR kinetic analysis (Biacore)
Type: binding

T1 sequence (P17931 2-250): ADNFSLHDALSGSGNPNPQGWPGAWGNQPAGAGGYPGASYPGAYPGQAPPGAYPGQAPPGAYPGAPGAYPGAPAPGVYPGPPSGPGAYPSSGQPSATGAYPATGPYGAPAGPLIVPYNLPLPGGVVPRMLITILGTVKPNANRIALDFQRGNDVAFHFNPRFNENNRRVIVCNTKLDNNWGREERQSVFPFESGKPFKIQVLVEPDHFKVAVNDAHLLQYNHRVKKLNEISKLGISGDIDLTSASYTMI

In the case of GB1211, the Kd is reported as 23.3 nM.
